Results taken from US20130178441A1, “Methods for Extending Progression-Free Survival using 10-Propargyl-10-Deazaaminopterin” (ALLOS THERAPEUTICS, INC., priority 2010, published 2013).

What was measured:
Assay type in all cases: in vivo, human
[1] = tested on: relapsed or refractory peripheral T-cell lymphoma (PTCL); assay: PROPEL (PDX-008) pivotal trial of pralatrexate, overall population (N=109)
Description: Pralatrexate was approved under the provisions of accelerated approval is the United States for the treatment of patients with relapsed/refractory PTCL based on the results of the pivotal trial PROPEL (Pralatrexate in Patients with Relapsed Or Refractory Peripheral T-cell Lymphoma). The primary endpoint, objective response rate (ORR) by independent central review using International Workshop Criteria, was 29% (32/109), including 11% complete response/complete response unconfirmed (CR/CRu) with a median duration of response of 10.1 months. The ORR by investigator assessment was 39% (43/109), including 18% CR/CRu.
The prognosis of aggressive PTCL is dismal. Investigators have developed salvage regimens attempting to improve outcomes for patients with relapsed or refractory disease. One such regimen frequently used is ifosfamide, carboplatin, and etoposide (ICE) or ICE-based regimens (eg, and rituximab-ICE [RICE] and dexamethasome-ICE [DICE]). These regimens can have response rates approaching 70% and patients may proceed to a stem cell transplant, yet most patients tend to relapse quickly (Horwitz et al Blood 2005; 106:a2679). Thus, optimal approaches for patients with relapsed or refractory disease are needed, and agents based on a unique mechanism of action warrant study. This analysis was conducted to determine if pralatrexate offered a beneficial treatment option for patients after treatment with an ICE/RICE/DICE regimen. Methods: Pralatrexate was administered via intravenous push over 3 to 5 minutes at 30 mg/m^2/week for six weeks in 7-week cycles with concurrent 1 mg vitamin B12 intramuscular every 8 to 10 weeks and folic acid 1.0 to 1.25 mg by mouth once daily. 109 patients were treated with pralatrexate in the PROPEL study. All patients in the PROPEL study had received at least 1 prior therapy for PTCL. A subset of 20 patients had received ICE, RICE or DICE at some point prior to treatment with pralatrexate. The efficacy in these patients was compared to the remainder of the patient population who had not received ICE/RICE/DICE as a therapy for PTCL prior to pralatrexate (n=89). The patient population that previously received an ICE-based regimen was heavily pretreated with am edian of 3 prior systemic regimens (range, 2-11). The median age was 45 years, a younger patient population compared with the overall PROPEL population (59 years).
(§1) The pivotal PROPEL study of pralatrexate (FOLOTYN®) in patients with relapsed or refractory PTCL reported a rapid response to treatment in a heavily pretreated patient population. The majority of patients (63% of responders) responded by their first assessment at 7 weeks (the end of cycle 1). The present analysis assessed if there were any unique characteristics of patients who were unable to complete the first cycle of therapy and to assess the outcomes of patients who received ≧1 or ≧2 cycles of pralatrexate. Pralatrexate, a folate analog targeting dihydrofolate reductase, was approved in the United States for treatment of relapsed or refractory PTCL based on the PROPEL study. Methods: In PROPEL, patients received 30 mg/m^2 pralatrexate once weekly for 6 weeks in successive 7-week cycles. […] Cycle completion was determined receiving ≧1 dose in the following cycle. Thus, the subgroup of patients who completed ≧1 (n=64) includes those patients who only completed 1 cycle+the 43 who completed ≧2 cycles of treatment. […] However, the patients not completing cycle lwere more likely to have the angioimmunoblastic subtype (20% vs 6%). Patients in each subgroup received a median of 3 prior treatment regimens.

relapsed/refractory PTCL = assay: PROPEL analysis by treatment duration (<1, ≧1, ≧2 cycles of pralatrexate): efficacy; details: for Median PFS by Central Review (months): Kaplan-Meier
Procedure: as §1

[2] = tested on: patients with relapsed or refractory PTCL; assay: PROPEL analysis by treatment duration: treatment discontinuation and adverse events
Procedure: as §1
The most frequent reasons for treatment discontinuation were similar for patients with <1 cycle, ≧1 cycle or ≧2 cycles, although the incidence of discontinuation was lower for patients with ≧1 or 2 cycles. […] However, the percentage of patients in whom mucosal inflammation led to treatment discontinuation was similar (<1: 4%; ≧1: 6%; ≧2: 2%). […] Patients who were unable to complete cycle 1 were more likely to have quickly progressed through multiple lines of therapy and were more likely to have the angioimmunoblastic subtype, which a subtype is thought to have a different biology than other PTCL subtypes and lower chemosensitivity. Further analysis of this subtype is warranted.

[3] = Treatment Duration <1 cycle (n=45)
[4] = Treatment Duration ≧1 cycle (n=64)
[5] = Treatment Duration ≧2 cycles (n=43)

## C#CCC(Cc1cnc2nc(N)nc(N)c2n1)c1ccc(C(=O)N[C@@H](CCC(=O)O)C(=O)O)cc1 (mixture of isomers) [Pralatrexate, (2S)-2-[[4-[(1RS)-1-[(2,4-diaminopteridin-6-yl)methyl]but-3-ynyl]benzoyl]amino]pentanedioic acid]
[1]; % of responders
  Responders who responded by their first assessment at 7 weeks (end of cycle 1): 63%
[1]; all 109 patients
  CR/CRu (complete response/complete response unconfirmed) by independent central review: 11%
  CR/CRu by investigator assessment: 18%
  Median duration of PFS by central review: 3.5 months
  Median duration of PFS by investigator assessment: 4.0 months
  Median duration of response by central review: 10.1 months
  Median duration of response by investigator assessment: 8.1 months
  ORR by investigator assessment: 39%
  Objective response rate (ORR) by independent central review using International Workshop Criteria: 29%
relapsed/refractory PTCL; [3]
  Median OS (months): 8.2 months
  ORR by Central Review (CR + CRu + PR): 7%
  ORR by Investigator Assessment (CR + CRu + PR): 7%
  Median PFS by Central Review (months): 1.3 months
relapsed/refractory PTCL; [4]
  Median Duration of Response by Central Review (months): 10.1 months
  Median OS (months): 20.5 months
  ORR by Central Review (CR + CRu + PR): 45%
  ORR by Investigator Assessment (CR + CRu + PR): 63%
  Median PFS by Central Review (months): 4.9 months
relapsed/refractory PTCL; [5]
  Median Duration of Response by Central Review (months): 13.1 months
  Median OS (months): 22.9 months
  ORR by Central Review (CR + CRu + PR): 54%
  ORR by Investigator Assessment (CR + CRu + PR): 70%
  Median PFS by Central Review (months): 8.1 months
[2]; 4 patients
  Additional patients with dose reductions in cycle 2 due to mucosal inflammation who continued treatment: 9%
[2]; 45 patients who did not complete cycle 1
  Discontinued due to adverse events (AEs): 29%
[2]; <1 cycle
  Incidence of Grade 3-4 anemia: 27%
  Incidence of Grade 3-4 mucosal inflammation: 24%
  Incidence of Grade 3-4 thrombocytopenia: 40%
  Patients in whom mucosal inflammation led to treatment discontinuation: 4%
[2]; Eight patients
  Patients with dose reductions due to mucosal inflammation in cycle 1 who continued treatment: 13%
[2]; of the 4 patients with dose reductions in cycle 2 due to mucosal inflammation
  Patients with a response to pralatrexate: 3 patients
[2]; of the 8 patients with dose reductions due to mucosal inflammation in cycle 1
  Patients with a response to pralatrexate: 4 patients
[2]; ≧1 cycle
  Incidence of Grade 3-4 anemia: 13%
  Incidence of Grade 3-4 mucosal inflammation: 19%
  Incidence of Grade 3-4 thrombocytopenia: 28%
  Patients in whom mucosal inflammation led to treatment discontinuation: 6%
[2]; ≧2 cycles
  Incidence of Grade 3-4 anemia: 9%
  Incidence of Grade 3-4 mucosal inflammation: 12%
  Incidence of Grade 3-4 thrombocytopenia: 21%
  Patients in whom mucosal inflammation led to treatment discontinuation: 2%
